Laboratory results from patent US6737383B1, “Herbicidal oxadiazolidines” (priority 1999, dated 2004).

Assays:
giant foxtail = assay: Test B pre/postemergence giant foxtail; assay type: in vivo, Setaria faberii
How it was run: (§1)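 Response is a visual 0-to-10 score relative to untreated plants, where 0 means no effect and 10 means complete control, taken twelve to sixteen days after application. Treatments went onto soil at planting and onto foliage of 1- to 4-leaf plants, using a surfactant-containing non-phytotoxic solvent.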

bedstraw = assay: Test B pre/postemergence bedstraw; assay type: in vivo, Galium aparine; conditions: Postemergence
How it was run: as §1

blackgrass = assay: Test B pre/postemergence blackgrass; assay type: in vivo, Alopecurus myosuroides
How it was run: as §1

soybean = assay: Test B pre/postemergence soybean; assay type: in vivo, Glycine max
How it was run: as §1

velvetleaf = assay: Test B pre/postemergence velvetleaf; assay type: in vivo, Abutilon theophrasti
How it was run: as §1

wild oat = assay: Test B pre/postemergence wild oat; assay type: in vivo, Avena fatua
How it was run: as §1

rice = assay: Test B flood test rice; assay type: in vivo, Oryza sativa
How it was run: (§2)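 Each value is a visual injury score relative to controls, with 10 meaning complete control and 0 no effect. Evaluation took place twelve to sixteen days after the 2-leaf-stage plants were treated and kept in the greenhouse.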

wheat = assay: Test B pre/postemergence wheat; assay type: in vivo, Triticum aestivum
How it was run: as §1

purple nutsedge = assay: Test B pre/postemergence purple nutsedge; assay type: in vivo, Cyperus rotundus
How it was run: as §1

surinam grass = assay: Test B pre/postemergence surinam grass; assay type: in vivo, Brachiaria decumbens
How it was run: as §1

bamyardgrass = assay: Test B flood test barnyardgrass; assay type: in vivo, Echinochloa crus-galli
How it was run: as §2

morningglory = assay: Test B pre/postemergence morningglory; assay type: in vivo, Ipomoea hederacea
How it was run: as §1

pigweed = assay: Test B pre/postemergence pigweed; assay type: in vivo, Amaranthus retroflexus
How it was run: as §1

cocklebur = assay: Test B pre/postemergence cocklebur; assay type: in vivo, Xanthium strumarium
How it was run: as §1

crabgrass = assay: Test B pre/postemergence crabgrass; assay type: in vivo, Digitaria sanguinalis
How it was run: as §1

smallflower flatsedge = assay: Test B flood test smallflower flatsedge; assay type: in vivo, Cyperus difformis
How it was run: as §2

[1] = Postemergence, Rate 250 g/ha, scale 0 to 10
[2] = Postemergence, Rate 500 g/ha, scale of 0 to 10 where 0 is no effect and 10 is complete control
[3] = Preemergence, Rate 62 g/ha, scale 0 to 10 (0 no effect, 10 complete control)
[4] = Preemergence, Rate 125 g/ha, scale of 0 to 10 where 0 is no effect and 10 is complete control
[5] = Preemergence, Rate 250 g/ha, scale 0 to 10, 0 is no effect, 10 is complete control
[6] = Preemergence, Rate 500 g/ha, scale 0 to 10, 0 is no effect, 10 is complete control
[7] = Rate 62 g/ha, Postemergence, scale 0 to 10, 0 no effect, 10 complete control
[8] = Rate 125 g/ha, Postemergence, scale 0 to 10, 0 is no effect, 10 is complete control
[9] = Postemergence block (flood test species), Rate 250 g/ha, scale 0 to 10
[10] = Postemergence section (flood test species), Rate 500 g/ha, scale of 0 to 10 where 0 is no effect and 10 is complete control
[11] = Rate 62 g/ha, Postemergence (flood test), scale 0 to 10, 0 no effect, 10 complete control
[12] = Rate 125 g/ha, Postemergence section (flood test species), scale 0 to 10, 0 is no effect, 10 is complete control

CC(C)N(C(=O)n1oc(=O)n(CCC#N)c1=O)c1ccccc1 [Compound 436]
Giant foxtail plant response rating (giant foxtail; [1]): 1 | Giant foxtail plant response rating (giant foxtail; [2]): 9 | Plant response rating, Giant foxtail (giant foxtail; [3]): 0 | Plant response rating, Giant foxtail (giant foxtail; [4]): 0 | Giant foxtail plant response rating (giant foxtail; [5]): 0 | Giant foxtail plant response rating (giant foxtail; [6]): 10 | Giant foxtail plant response rating (giant foxtail; [7]): 0 | Giant foxtail plant response rating (giant foxtail; [8]): 0 | Bedstraw plant response rating (bedstraw; Rate 250 g/ha, scale 0 to 10): 0 | Bedstraw plant response rating (bedstraw; Rate 62 g/ha, scale 0 to 10, 0 no effect, 10 complete control): 0 | Bedstraw plant response rating (bedstraw; Rate 125 g/ha, scale 0 to 10, 0 is no effect, 10 is complete control): 0 | Blackgrass plant response rating (blackgrass; [1]): 0 | Blackgrass plant response rating (blackgrass; [2]): 9 | Plant response rating, Blackgrass (blackgrass; [3]): 0 | Plant response rating, Blackgrass (blackgrass; [4]): 0 | Blackgrass plant response rating (blackgrass; [5]): 0 | Blackgrass plant response rating (blackgrass; [6]): 9 | Blackgrass plant response rating (blackgrass; [7]): 0 | Blackgrass plant response rating (blackgrass; [8]): 0 | Soybean plant response rating (soybean; [1]): 0 | Soybean plant response rating (soybean; [2]): 4 | Plant response rating, Soybean (soybean; [3]): 0 | Plant response rating, Soybean (soybean; [4]): 0 | Soybean plant response rating (soybean; [5]): 0 | Soybean plant response rating (soybean; [6]): 0 | Soybean plant response rating (soybean; [7]): 0 | Soybean plant response rating (soybean; [8]): 0 | Velvetleaf plant response rating (velvetleaf; [1]): 0 | Velvetleaf plant response rating (velvetleaf; [2]): 3 | Plant response rating, Velvetleaf (velvetleaf; [3]): 0 | Plant response rating, Velvetleaf (velvetleaf; [4]): 0 | Velvetleaf plant response rating (velvetleaf; [5]): 0 | Velvetleaf plant response rating (velvetleaf; [6]): 7 | Velvetleaf plant response rating (velvetleaf; [7]): 0 | Velvetleaf plant response rating (velvetleaf; [8]): 0 | Wild oats plant response rating (wild oat; [1]): 0 | Wild oats plant response rating (wild oat; [2]): 3 | Plant response rating, Wild oats (wild oat; [3]): 0 | Plant response rating, Wild oats (wild oat; [4]): 0 | Wild oats plant response rating (wild oat; [5]): 0 | Wild oats plant response rating (wild oat; [6]): 10 | Wild oats plant response rating (wild oat; [7]): 0 | Wild oats plant response rating (wild oat; [8]): 0 | Rice plant response rating (rice; [9]): 0 | Rice plant response rating (rice; [10]): 0 | Rice plant response rating (rice; [11]): 0 | Rice plant response rating (rice; [12]): 0 | Wheat plant response rating (wheat; [1]): 0 | Wheat plant response rating (wheat; [2]): 7 | Plant response rating, Wheat (wheat; [3]): 0 | Plant response rating, Wheat (wheat; [4]): 0 | Wheat plant response rating (wheat; [5]): 0 | Wheat plant response rating (wheat; [6]): 5 | Wheat plant response rating (wheat; [7]): 0 | Wheat plant response rating (wheat; [8]): 0 | Nutsedge plant response rating (purple nutsedge; [1]): 0 | Nutsedge plant response rating (purple nutsedge; [2]): 3 | Plant response rating, Nutsedge (purple nutsedge; [3]): 0 | Plant response rating, Nutsedge (purple nutsedge; [4]): 0 | Nutsedge plant response rating (purple nutsedge; [5]): 0 | Nutsedge plant response rating (purple nutsedge; [6]): 5 | Nutsedge plant response rating (purple nutsedge; [7]): 0 | Nutsedge plant response rating (purple nutsedge; [8]): 0 | B. signalgrass plant response rating (surinam grass; Postemergence, Rate 250 g/ha, scale 0 to 10, 0 no effect, 10 complete control): 0 | B. signalgrass plant response rating (surinam grass; [2]): 8 | Plant response rating, B. signalgrass (surinam grass; [3]): 0 | Plant response rating, B. signalgrass (surinam grass; [4]): 0 | B. signalgrass plant response rating (surinam grass; [5]): 0 | B. signalgrass plant response rating (surinam grass; [6]): 10 | B. signalgrass plant response rating (surinam grass; [7]): 0 | B. signalgrass plant response rating (surinam grass; [8]): 0 | Barnyardgrass plant response rating (bamyardgrass; [9]): 0 | Barnyardgrass plant response rating (bamyardgrass; [10]): 0 | Barnyardgrass plant response rating (bamyardgrass; [11]): 0 | Barnyardgrass plant response rating (bamyardgrass; [12]): 0 | Morningglory plant response rating (morningglory; [1]): 2 | Morningglory plant response rating (morningglory; [2]): 10 | Plant response rating, Morningglory (morningglory; [3]): 0 | Plant response rating, Morningglory (morningglory; [4]): 0 | Morningglory plant response rating (morningglory; [5]): 0 | Morningglory plant response rating (morningglory; [6]): 1 | Morningglory plant response rating (morningglory; [7]): 0 | Morningglory plant response rating (morningglory; [8]): 0 | Redroot pigweed plant response rating (pigweed; [1]): 0 | Redroot pigweed plant response rating (pigweed; [2]): 7 | Plant response rating, Redroot pigweed (pigweed; [3]): 0 | Plant response rating, Redroot pigweed (pigweed; [4]): 0 | Redroot pigweed plant response rating (pigweed; [5]): 0 | Redroot pigweed plant response rating (pigweed; [6]): 10 | Redroot pigweed plant response rating (pigweed; [7]): 0 | Redroot pigweed plant response rating (pigweed; [8]): 0 | Cocklebur plant response rating (cocklebur; [1]): 0 | Cocklebur plant response rating (cocklebur; [2]): 0 | Plant response rating, Cocklebur (cocklebur; [3]): 0 | Plant response rating, Cocklebur (cocklebur; [4]): 0 | Cocklebur plant response rating (cocklebur; [5]): 0 | Cocklebur plant response rating (cocklebur; [6]): 0 | Cocklebur plant response rating (cocklebur; [7]): 0 | Cocklebur plant response rating (cocklebur; [8]): 0 | Crabgrass plant response rating (crabgrass; [1]): 1 | Crabgrass plant response rating (crabgrass; [2]): 9 | Plant response rating, Crabgrass (crabgrass; [3]): 0 | Plant response rating, Crabgrass (crabgrass; [4]): 0 | Crabgrass plant response rating (crabgrass; [5]): 0 | Crabgrass plant response rating (crabgrass; [6]): 10 | Crabgrass plant response rating (crabgrass; [7]): 0 | Crabgrass plant response rating (crabgrass; [8]): 0 | S. Flatsedge plant response rating (smallflower flatsedge; [9]): 0 | S. Flatsedge plant response rating (smallflower flatsedge; [10]): 0 | S. Flatsedge plant response rating (smallflower flatsedge; [11]): 0 | S. Flatsedge plant response rating (smallflower flatsedge; [12]): 0
